Read-outs that look alike come from different tables or passages of the source.
Columns and labels:
[1] = tested on: patients; conditions: cited from earlier work; for incidence of depression: controlled trial titrated from 4.5 g, placebo 1.7%
[2] = cited from earlier work
[3] = n=20, another studied population; cited from earlier work
[4] = tested on: rat; conditions: 2-year study; cited from earlier work
[5] = tested on: mouse; conditions: 2-year study; cited from earlier work
[6] = in vivo
Description: The study included a sequential, three period design with a single-dose administration of 6 g FT218 on Day 1 (Period 1), once daily 1250 mg divalproex sodium ER administration from Day 2-11 (Period 2), and FT218 and divalproex sodium ER co-administration on Day 12 (Period 3). All administrations were performed in the evening, 2 hours after the completion of dinner.
(§1) To compare the effect of FT218 on DVP, the concentration versus time curves for a 1250 mg dose of DVP administered alone (Day 11) and co-administered with FT218 (Day 12) were plotted together.

[7] = in vivo; remark: listed apart in the source
Description: The study included a sequential, three period design with a single-dose administration of 6 g FT218 on Day 1 (Period 1), once daily 1250 mg divalproex sodium ER administration from Day 2-11 (Period 2), and FT218 and divalproex sodium ER co-administration on Day 12 (Period 3). All administrations were performed in the morning, 2 hours after the completion of a morning meal.
as §1

[8] = cited from earlier work; remark: listed apart in the source
[9] = tested on: plasma proteins; conditions: GHB concentrations 3 mcg/mL to 300 mcg/mL; cited from earlier work
[10] = 9 g per night, 50 patients with obstructive sleep apnea
[11] = elderly (65 years or older), another population
[12] = of 781 patients with narcolepsy
[13] = younger adults, another population
[14] = 6 g per day as two 3 g doses, ibuprofen 800 mg/dose four times per day

O=C([O-])CCCO.[Na+] [immediate-release sodium oxybate, sodium 4-hydroxybutyrate]
incidence of depression ([1]; 4.5 g per night): 1.5%
incidence of depression ([1]; 6 g per night): 3.2%
patients with clinically significant oxygen desaturation (≤55%) ([1]; 9 g per night, 50 patients with obstructive sleep apnea (three patients)): 6%
number of central apneas [1, 10]: significant increase
severity of sleep-disordered breathing [1, 10]: did not increase the severity of sleep-disordered breathing
patients experiencing confusion ([1]; 9 g per night, controlled fixed-dose trial): 17%
incidence of depression ([1]; 9 g per night): 3.6%
clinically significant worsening of respiratory function ([1]; 40 patients with baseline apnea/hypopnea index 16 to 67 events per hour, 4.5 g to 9 g per night): None of the 40 patients
profound CNS depression ([1]; 128 patients with narcolepsy): two subjects had profound CNS depression
CNS depression at recommended doses ([1]; adult patients, clinical trials): obtundation and clinically significant respiratory depression occurred
sleepwalking with potential injury or significant injury ([1]; clinical trial in patients with narcolepsy): Five instances
events of depression ([1]; controlled trial, fixed doses 3 g, 6 g or 9 g per night, at the 3 g per night dose): a single event of depression
dose-related changes in oxygen saturation ([1]; doses up to 9 g per night, 21 patients with narcolepsy): no dose-related changes in oxygen saturation
discontinuations of treatment due to adverse reactions [1, 11]: 21%
frequency of headaches [1, 11]: 39%
patients discontinuing because of depression ([1]; four of 781 patients): < 1%
patients discontinuing due to sleepwalking ([1]; human, in vivo): < 1%
patients who discontinued because of confusion ([1]; human, in vivo): Less than 1%
patients reporting adverse reactions of depression [1, 12]: 7%
patients who experienced confusion [1, 12]: 3%
patients reporting sleepwalking ([1]; of 781 patients with narcolepsy, controlled and long-term open-label studies): 6%
patients in whom anxiety occurred ([1]; of 874 patients, another population): 5.8%
suicides and attempted suicides ([1]; patients with narcolepsy (n=781)): two suicides and two attempted suicides
significant worsening of apnea/hypopnea index ([1]; patients with preexisting moderate-to-severe sleep apnea): One of four patients
events of confusion ([1]; trial titrated from 4.5 g per night, at the 9 g per night dose): a single event of confusion
discontinuations of treatment due to adverse reactions [1, 13]: 19%
frequency of headaches [1, 13]: 19%
systemic exposure to GHB on co-administration with diclofenac ([2]; 6 g per day as two 3 g doses four hours apart, diclofenac 50 mg/dose twice per day): no significant changes
effect of co-administration on pharmacokinetics of diclofenac ([2]; 6 g per day as two 3 g doses, diclofenac 50 mg/dose twice per day): did not appear to affect
effect of co-administration on pharmacokinetics of ibuprofen [2, 14]: did not affect
systemic exposure to GHB (plasma Cmax and AUC) on co-administration with ibuprofen [2, 14]: comparable systemic exposure
pharmacokinetic interactions with protriptyline hydrochloride, zolpidem tartrate, and modafinil ([2]; healthy adults): no pharmacokinetic interactions
pharmacokinetic or pharmacodynamic interactions with duloxetine HCl ([2]; healthy adults): no pharmacokinetic or clinically significant pharmacodynamic interactions
pharmacokinetic interactions with the alcohol dehydrogenase inhibitor fomepizole ([2]; in vivo): no pharmacokinetic interactions
pharmacokinetic characteristics of GHB in younger (48 to 64 years) vs older (65 to 75 years) adults [3]: consistent

O=C1CCCO1 [gamma-butyrolactone]
carcinogenic activity [4]: no clear evidence of carcinogenic activity
carcinogenic activity [5]: no clear evidence of carcinogenic activity

CCCC(CCC)C(=O)O [divalproex sodium ER, divalproex sodium]
decrease of valproic acid Cmax with FT218 ([6]; human): approximately 5%
valproic acid AUC0-24 T/R ratio [90% CI], Day 12 (with FT218) vs Day 11 (without) ([6]; human): 97.28 [94.59-100.04]
valproic acid Cmax T/R ratio [90% CI], Day 12 (with FT218) vs Day 11 (without) ([6]; human): 94.82 [91.03-98.76]
90% CIs of ratio of Cmax and AUC0-24 of valproic acid vs bioequivalence range (80.00%-125.00%) [6]: contained within the standard bioequivalence range
tmax for valproic acid, with vs without FT218 [6]: comparable
90% CIs of ratio of Cmax and AUC0-24 of valproic acid vs bioequivalence range (80.00%-125.00%) [7]: contained within the standard bioequivalence range

O=C(O)CCCO [GHB, gamma-hydroxybutyrate]
excretion in human milk ([8]; after oral administration of sodium oxybate): excreted in human milk
apparent volume of distribution ([8]; in vivo): 0.19 to 0.384 L/kg
elimination half-life ([8]; in vivo): 30 to 60 min
fecal excretion ([8]; in vivo): negligible
placental transfer ([8]; intravenous administration to mothers): rapid
unchanged drug in human urine ([8]; within 6 to 8 hours after dosing): less than 5%
change in pharmacokinetics of GHB on alteration of gastric pH with omeprazole ([2]; in vivo): no significant change
bound to plasma proteins [9]: less than 1%

Source: US20250387361A1, “METHODS OF ADMINISTERING GAMMA-HYDROXYBUTYRATE COMPOSITIONS WITH DIVALPROEX SODIUM” (Flamel Ireland Limited, priority 2020, published 2025)
